pIC50, pKi: −log10 of the molar value. Like-named read-outs stand apart in the source and are kept apart here.
Legend:
[1] = biological target: T1, MRP2 (Homo sapiens, UniProt Q92887); design: method as in previous studies; settings: previously characterized inhibitors; ref previous studies; read-out: IC50 (95% CI), MRP2; cited from earlier work
T1 construct: made in house; host or cells: Spodoptera frugiperda Sf9 cells, crude membrane vesicles

[2] = tested on: Caco-2 cells; assay: in vitro; settings: for effect on sulfasalazine permeability (P app): Caco-2
Experimental: (§1) Caco-2 cells were cultured on 12-well Transwell polycarbonate membrane inserts with a 0.4 μm pore size (Corning Incorporated, Kennebunk, ME) at 37 °C and 5% CO2 for 21–24 days prior to the experiment as described in Hubatsch et al. The culture medium (DMEM, 10% FBS, 1% MEM nonessential amino acids, 100 U/mL penicillin–streptomycin) was changed every second day. Transepithelial electrical resistance (TEER) was measured before and after the permeability assay with a Millicell-ERS electrode (Millipore, Bedford, MA) attached to an epithelial volt ohm meter (EVOM, World Precision Instruments, Sarasota, FL). The permeability assay was performed according to a previously published protocol. […] Sulfasalazine is a substrate of BCRP and OATP2B1. , The DMSO concentration was 0.45–1.5%. Before the experiment, inserts were washed and preincubated in the transport buffer for 20 min shaking at 37 °C. Sulfasalazine and LY permeability was measured in the apical to basolateral direction at five time points (20, 40, 60, 90, and 120 min) and, additionally, in the basolateral to apical direction to calculate the efflux ratio. […] […] LY (250 μM) was added on the donor side of all inserts to measure the integrity of the cell monolayer. Before analysis, samples were centrifuged at 2755g for 30 min, and donor solution and mass balance samples were diluted 1:100. LY fluorescence was measured with a Varioskan LUX microplate reader (Thermo Fisher Scientific) at 430 nm excitation and 538 nm emission. Sulfasalazine was analyzed with ultra-performance liquid chromatography (UPLC) using a Syncronis C18 column (1.7 μm particle size, 50 × 2.1 mm + 0.2 μm Waters online filter) (Thermo Fisher Scientific) coupled with Waters Acquity UPLC interfaced with a PDA detector both controlled by the Waters Empower software version 3. The UPLC was operated in gradient mode at 354 nm. Solvents were 0.015 M phosphate buffer pH 2 (A), acetonitrile (B), 1:1 acetonitrile/methanol (strong needle wash), and 20% acetonitrile (weak needle wash). Column temperature was 30 °C, injection volume was 10 μL, retention time was 1.46 min, and flow rate was 0.5 mL/min. The gradient was 25% B → 70% B (0–3 min), 70% B → 25% B (3.00–3.01 min), and 25% B (3.01–4 min). The data were collected for the first 180 s of each UPLC run.
(§2) In the Caco-2 permeability assay, the apparent permeability (P app) of sulfasalazine was calculated using the following equation: Papp=(dQ/dt)(1/A×C0) where dQ/dt is the rate of permeation across the cells (nmol/min), A is the surface area of the filter (1.12 cm^2), and C 0 is the initial concentration in the donor chamber (μM). The efflux ratio of sulfasalazine was calculated by dividing the P app in the basolateral to the apical direction by the P app in the apical to basolateral direction. The TEER for each cell insert was calculated before and after the experiment by multiplying the mean resistance of three measurements by the surface area of the filter (1.12 cm^2). Mass balance was calculated by dividing the […]. All experiments were done in triplicate wells, and the IC50 and Caco-2 permeability assays were repeated three times.

[3] = biological target: T2, OATP2B1 (Homo sapiens, UniProt O94956); settings: previously characterized inhibitors, ref previous studies, cited from earlier work; for pKi: read-out: K i, OATP2B1
T2 construct: expressed in transfected cells; host or cells: HEK293 cells (ATCC) transduced with recombinant OATP2B1 baculovirus
T2 sequence (O94956 1-709): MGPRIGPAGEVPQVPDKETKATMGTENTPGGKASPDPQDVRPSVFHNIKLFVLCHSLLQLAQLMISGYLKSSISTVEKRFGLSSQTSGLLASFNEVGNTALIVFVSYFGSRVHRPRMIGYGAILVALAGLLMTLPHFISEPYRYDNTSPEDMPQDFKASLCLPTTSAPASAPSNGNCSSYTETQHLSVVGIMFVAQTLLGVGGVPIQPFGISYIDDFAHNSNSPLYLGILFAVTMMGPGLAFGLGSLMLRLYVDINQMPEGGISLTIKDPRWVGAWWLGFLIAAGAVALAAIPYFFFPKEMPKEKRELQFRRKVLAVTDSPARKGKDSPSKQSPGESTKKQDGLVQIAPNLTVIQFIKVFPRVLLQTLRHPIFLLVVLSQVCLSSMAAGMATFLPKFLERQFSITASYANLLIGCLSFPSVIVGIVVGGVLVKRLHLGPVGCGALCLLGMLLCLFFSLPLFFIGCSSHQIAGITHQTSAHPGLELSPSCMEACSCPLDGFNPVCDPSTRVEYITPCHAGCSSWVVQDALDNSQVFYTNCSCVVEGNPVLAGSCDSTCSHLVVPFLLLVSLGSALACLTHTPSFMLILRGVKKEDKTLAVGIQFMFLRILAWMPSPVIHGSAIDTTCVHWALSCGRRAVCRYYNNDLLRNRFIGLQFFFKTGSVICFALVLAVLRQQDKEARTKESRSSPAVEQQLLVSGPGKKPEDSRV

[4] = biological target: T3, BCRP (Homo sapiens, UniProt Q9UNQ0); settings: read-out: IC50 (95% CI), BCRP; previously characterized inhibitors; ref previous studies; cited from earlier work
T3 sequence (Q9UNQ0 1-655): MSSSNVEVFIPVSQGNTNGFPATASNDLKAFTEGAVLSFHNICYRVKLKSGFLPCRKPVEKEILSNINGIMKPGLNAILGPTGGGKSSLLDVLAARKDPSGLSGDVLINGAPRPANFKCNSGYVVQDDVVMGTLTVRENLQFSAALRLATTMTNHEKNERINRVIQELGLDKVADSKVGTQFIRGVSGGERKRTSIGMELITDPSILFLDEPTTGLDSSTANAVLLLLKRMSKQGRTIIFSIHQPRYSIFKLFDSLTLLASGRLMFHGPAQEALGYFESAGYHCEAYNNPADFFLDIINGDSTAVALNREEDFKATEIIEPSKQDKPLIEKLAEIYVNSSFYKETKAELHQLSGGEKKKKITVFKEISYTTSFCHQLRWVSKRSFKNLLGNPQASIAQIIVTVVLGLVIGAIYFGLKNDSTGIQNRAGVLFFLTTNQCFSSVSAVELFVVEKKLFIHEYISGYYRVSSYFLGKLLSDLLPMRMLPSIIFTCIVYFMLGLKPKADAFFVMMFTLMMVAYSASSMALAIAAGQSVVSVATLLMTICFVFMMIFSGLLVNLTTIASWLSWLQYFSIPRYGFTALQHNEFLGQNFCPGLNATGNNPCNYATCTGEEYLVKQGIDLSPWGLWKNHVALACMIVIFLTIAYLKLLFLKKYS

[5] = design: method as in not given; settings: rats; ref not given; cited from earlier work
[6] = tested on: Caco-2 cells; design: method as in not given; settings: ref not given; cited from earlier work
[7] = tested on: OATP2B1; design: method as in Zou et al.; settings: 25 mg/kg; P-gp-deficient mice; ref Zou et al.; cited from earlier work
[8] = in vitro; settings: human, Caco-2, pH 7.4
Experimental: as §1, §2

[9] = biological target: T3, BCRP; assay: Vesicular transport assay, BCRP (Lucifer yellow substrate); format: biochemical; design: made in house; host or cells: Spodoptera frugiperda Sf9 cells, crude membrane vesicles; settings: Sf9-derived crude membrane vesicles expressing BCRP, pH 7, probe Lucifer yellow 50 μM, food additive 50 μM, n = 1, read-out: inhibition of BCRP substrate accumulation
Experimental: (§3) Transport inhibition by 22 food additives was tested with Spodoptera frugiperda (Sf9) derived crude membrane vesicles expressing BCRP, MRP2, or P-gp produced in-house. […] Vesicles (50 μg total protein/well) were diluted in an assay buffer (40 mM MOPS–Tris pH 7.0, 60 mM KCl, and 6 mM MgCl2) with the substrate, and food additives (final concentration of 50 μM) in DMSO were added to the mixture. After preincubation, either the assay buffer or Mg-ATP solution (final concentration 4 mM) was added to the plate to start the reaction. The plate was incubated at 37 °C, and the reaction was stopped with an ice-cold washing mixture (40 mM MOPS-Tris pH 7.0 and 70 mM KCl). Samples were moved to a MultiScreenHTS-FB Plate Glass fiber 1.0 μm/0.65 μm Durapore filter plate (Millipore, USA), and the wells were washed five times with the ice-cold washing mixture. For BCRP and MRP2, the fluorescent substrate was eluted from the filters with 100 μL 0.1 M NaOH. For LY samples, an equal volume of 0.1 M HCl was added to neutralize the samples before fluorescence measurement. The amount of the substrate accumulated into the vesicles was measured by fluorescent detection using a Varioskan LUX microplate reader (Thermo Fisher Scientific, Finland) (Table ). The accumulation into the P-gp vesicles was measured with high-performance liquid chromatography (HPLC) (Agilent 110 series, Agilent Technologies, USA) after lysis and elution of the vesicle contents with 100 μL 3:1 methanol/water + 0.1% formic acid. The column used was a Poroshell 120 EC-C18 with a size of 4.6 × 100 mm and 2.7 μm particle size. Eluent A was 0.1% formic acid, and eluent B was acetonitrile. The flow rate of eluent was 1 mL/min, and the injection volume of samples was 10 μL. […] The retention time for NMQ was around 2.5 min.
(§4) For the efflux transporters, the relative transport was calculated as relativetransport(%ofcontrol)=transportinh,ATP−transportinh,noATP/transportDMSO,ATP−transportDMSO,noATP×100% where transportinh,ATP and transportinh,no ATP are the transport rates in the presence of food additives with or without ATP, respectively, and transportDMSO,ATP and transportDMSO,no ATP are the corresponding transport rates in the presence of the vehicle (DMSO) with or without ATP.
(§5) The half-maximal inhibitory concentrations (IC50) were calculated with GraphPad Prism version 9.0.2 (GraphPad Software, San Diego, CA) using nonlinear regression that fits the data to a four-parameter dose–response curve: relativetransport=minimum+maximum−minimum/1+([I]/IC50)^h where minimum and maximum describe the plateaus of minimal and maximal relative transport (%), [I] is the concentration of inhibitor, and h is the Hill slope, which describes the steepness of the slope.

[10] = biological target: T1, MRP2; assay: Vesicular transport assay, MRP2 (CDCF substrate); format: biochemical; settings: food additive 50 μM; CDCF 5 μM; n = 1
Experimental: Transport inhibition by 22 food additives was tested with Spodoptera frugiperda (Sf9) derived crude membrane vesicles expressing BCRP, MRP2, or P-gp produced in-house. […] Vesicles (50 μg total protein/well) were diluted in an assay buffer (40 mM MOPS–Tris pH 7.0, 60 mM KCl, and 6 mM MgCl2) with the substrate, and food additives (final concentration of 50 μM) in DMSO were added to the mixture. After preincubation, either the assay buffer or Mg-ATP solution (final concentration 4 mM) was added to the plate to start the reaction. The plate was incubated at 37 °C, and the reaction was stopped with an ice-cold washing mixture (40 mM MOPS-Tris pH 7.0 and 70 mM KCl). Samples were moved to a MultiScreenHTS-FB Plate Glass fiber 1.0 μm/0.65 μm Durapore filter plate (Millipore, USA), and the wells were washed five times with the ice-cold washing mixture. For BCRP and MRP2, the fluorescent substrate was eluted from the filters with 100 μL 0.1 M NaOH. […] The amount of the substrate accumulated into the vesicles was measured by fluorescent detection using a Varioskan LUX microplate reader (Thermo Fisher Scientific, Finland) (Table ).
as §4, §5

[11] = biological target: P-gp (Homo sapiens, UniProt P08183); assay: Vesicular transport assay, P-gp (N-methyl-quinidine substrate); settings: food additive 50 μM; N-methyl-quinidine 2 μM; n = 1
Chain of P-gp (P08183 whole entry): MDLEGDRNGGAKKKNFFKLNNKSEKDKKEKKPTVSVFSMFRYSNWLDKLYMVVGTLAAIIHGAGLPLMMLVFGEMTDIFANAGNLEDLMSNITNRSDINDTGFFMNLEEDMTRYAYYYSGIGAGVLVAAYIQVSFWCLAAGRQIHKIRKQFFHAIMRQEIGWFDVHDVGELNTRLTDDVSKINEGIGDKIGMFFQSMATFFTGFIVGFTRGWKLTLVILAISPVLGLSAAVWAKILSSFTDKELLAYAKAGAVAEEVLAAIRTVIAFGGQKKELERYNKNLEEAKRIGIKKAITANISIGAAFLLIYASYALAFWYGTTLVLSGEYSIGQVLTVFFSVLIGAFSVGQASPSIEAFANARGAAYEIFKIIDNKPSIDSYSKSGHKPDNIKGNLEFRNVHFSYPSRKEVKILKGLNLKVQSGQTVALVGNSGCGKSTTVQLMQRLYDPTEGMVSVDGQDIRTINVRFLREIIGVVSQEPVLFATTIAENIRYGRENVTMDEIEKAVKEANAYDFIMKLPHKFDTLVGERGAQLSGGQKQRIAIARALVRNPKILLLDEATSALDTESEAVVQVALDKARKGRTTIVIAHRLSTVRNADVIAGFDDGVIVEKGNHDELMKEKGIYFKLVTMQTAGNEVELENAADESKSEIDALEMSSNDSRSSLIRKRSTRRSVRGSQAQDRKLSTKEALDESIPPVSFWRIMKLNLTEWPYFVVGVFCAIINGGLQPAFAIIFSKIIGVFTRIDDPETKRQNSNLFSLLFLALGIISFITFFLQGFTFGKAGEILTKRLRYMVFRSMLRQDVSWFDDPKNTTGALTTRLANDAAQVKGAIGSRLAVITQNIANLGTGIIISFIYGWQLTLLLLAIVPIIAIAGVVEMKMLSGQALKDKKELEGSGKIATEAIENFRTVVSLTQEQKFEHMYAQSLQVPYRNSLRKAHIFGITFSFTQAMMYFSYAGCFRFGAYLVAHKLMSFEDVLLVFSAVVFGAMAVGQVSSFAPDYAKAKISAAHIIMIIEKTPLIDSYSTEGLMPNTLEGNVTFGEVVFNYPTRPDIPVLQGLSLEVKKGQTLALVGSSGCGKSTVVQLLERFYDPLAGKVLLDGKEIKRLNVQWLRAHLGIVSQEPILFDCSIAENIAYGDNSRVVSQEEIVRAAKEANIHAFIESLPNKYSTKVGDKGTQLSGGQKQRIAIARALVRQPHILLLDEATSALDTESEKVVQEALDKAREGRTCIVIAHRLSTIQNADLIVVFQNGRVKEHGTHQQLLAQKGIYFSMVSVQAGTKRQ
Experimental: as §3, §4, §5

[12] = biological target: T2, OATP2B1; assay: HEK293 uptake assay, OATP2B1 (5-carboxyfluorescein substrate); format: cell-based; settings: human, HEK293 cells transduced with recombinant OATP2B1 baculovirus, pH 6, probe 5-carboxyfluorescein 2 μM, food additive 50 μM, n = 1, read-out: inhibition of OATP2B1-mediated uptake
Experimental: The inhibition of OATP2B1 was studied using a HEK293 cell-based uptake assay. HEK293 cells were cultured in DMEM supplemented with 10% FBS at 37 °C and 5% CO2 and seeded at 22,500 cells/well on 96-well plates coated with 0.1 mg/mL poly-D-lysine. After 24 h, the medium was replaced with a transduction mix (DMEM with 10% FBS, 5 mM sodium butyrate, and recombinant OATP2B1 or enhanced yellow fluorescent protein [eYFP, negative control] baculoviruses). The baculoviruses were produced as previously described. The uptake assay was performed after approximately 48 h. […] Test solutions also contained the substrate. Cells were washed with warm transport buffer and preincubated at 37 °C. Preincubation solutions were replaced with test solutions and incubated at 37 °C with shaking at 250 rpm. Transport was terminated by aspirating the test solution and washing the wells with an ice-cold transport buffer (150 μL) three times. Wells were left to dry, and cells were lysed with 0.1 M NaOH. […] Total protein concentration was measured from six random wells with a Pierce Coomassie (Bradford) Assay kit (Thermo Fisher Scientific) to ensure a similar protein concentration in the OATP2B1 and eYFP wells.

[13] = pH 5.5, read-out: IC50, OATP2B1, pH 5.5
[14] = pH 7.4, read-out: IC50, OATP2B1, pH 7.4

T1 sequence (Q92887 whole entry): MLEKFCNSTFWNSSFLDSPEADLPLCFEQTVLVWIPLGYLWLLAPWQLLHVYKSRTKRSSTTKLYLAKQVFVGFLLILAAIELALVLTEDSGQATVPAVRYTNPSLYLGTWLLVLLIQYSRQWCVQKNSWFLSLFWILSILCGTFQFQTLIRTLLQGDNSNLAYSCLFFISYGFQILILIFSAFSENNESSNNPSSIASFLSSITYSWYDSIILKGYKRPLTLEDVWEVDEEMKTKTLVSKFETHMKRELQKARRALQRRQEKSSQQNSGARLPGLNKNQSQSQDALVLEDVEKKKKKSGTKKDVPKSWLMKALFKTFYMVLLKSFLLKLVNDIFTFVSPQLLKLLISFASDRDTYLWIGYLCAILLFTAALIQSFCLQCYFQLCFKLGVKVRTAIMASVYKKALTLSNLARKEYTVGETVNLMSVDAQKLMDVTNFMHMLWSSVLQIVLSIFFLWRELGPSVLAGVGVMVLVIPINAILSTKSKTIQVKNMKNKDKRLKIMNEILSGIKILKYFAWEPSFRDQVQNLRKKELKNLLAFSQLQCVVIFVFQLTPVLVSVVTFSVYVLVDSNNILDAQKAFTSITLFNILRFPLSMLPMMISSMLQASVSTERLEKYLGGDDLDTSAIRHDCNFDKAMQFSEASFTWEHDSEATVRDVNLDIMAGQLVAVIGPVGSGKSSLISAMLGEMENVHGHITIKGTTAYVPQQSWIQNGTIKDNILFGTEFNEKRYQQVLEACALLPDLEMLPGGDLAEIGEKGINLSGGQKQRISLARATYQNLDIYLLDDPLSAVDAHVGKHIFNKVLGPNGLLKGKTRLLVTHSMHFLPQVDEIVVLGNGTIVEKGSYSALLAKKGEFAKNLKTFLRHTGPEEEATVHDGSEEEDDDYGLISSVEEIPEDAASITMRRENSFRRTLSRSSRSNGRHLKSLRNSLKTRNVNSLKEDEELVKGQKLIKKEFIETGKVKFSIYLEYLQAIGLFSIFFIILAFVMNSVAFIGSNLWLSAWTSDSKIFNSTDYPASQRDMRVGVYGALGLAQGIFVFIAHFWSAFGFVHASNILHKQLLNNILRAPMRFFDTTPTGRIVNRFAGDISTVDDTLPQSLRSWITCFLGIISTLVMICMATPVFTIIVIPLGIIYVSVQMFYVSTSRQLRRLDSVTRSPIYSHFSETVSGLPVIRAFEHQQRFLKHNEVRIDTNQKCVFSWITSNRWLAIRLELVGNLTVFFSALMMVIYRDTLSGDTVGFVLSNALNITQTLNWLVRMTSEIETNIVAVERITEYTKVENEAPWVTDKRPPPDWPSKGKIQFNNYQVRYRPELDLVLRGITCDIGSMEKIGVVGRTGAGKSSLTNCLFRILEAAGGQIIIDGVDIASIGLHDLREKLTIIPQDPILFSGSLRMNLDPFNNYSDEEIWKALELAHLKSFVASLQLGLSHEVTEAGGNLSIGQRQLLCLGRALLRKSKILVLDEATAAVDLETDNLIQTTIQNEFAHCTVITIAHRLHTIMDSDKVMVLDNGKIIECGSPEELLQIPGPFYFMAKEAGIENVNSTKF

Structure (SMILES) | pIC50 [1] | effect on sulfasalazine permeability (P app) [2] | pIC50 [3, 13] | pKi [3] | pIC50 [4] | pIC50 [3, 14] | also measured
CCN(Cc1cccc(S(=O)(=O)[O-])c1)c1ccc(C(=C2C=CC(=[N+](CC)Cc3cccc(S(=O)(=O)[O-])c3)C=C2)c2ccccc2S(=O)(=O)[O-])cc1.[Na+].[Na+] [brilliant blue FCF] | 5.49 | None of the selected food additives showed any effect | 4.74 | 4.89 | 5.71 | – | –
COc1ccc(CCC(=O)c2c(O)cc(O[C@@H]3O[C@H](CO)[C@@H](O)[C@H](O)[C@H]3O[C@@H]3O[C@@H](C)[C@H](O)[C@@H](O)[C@H]3O)cc2O)cc1O [neohesperidin DC] | – | None of the selected food additives showed any effect | 4.81 | 4.70 | 6.07 | 4.31 | oral bioavailability [5]: ~20%; P app in Caco-2 cells [6]: < 6 × 10^–6 cm/s
COc1cc(S(=O)(=O)[O-])c(C)cc1N=Nc1c(O)ccc2cc(S(=O)(=O)[O-])ccc12.[Na+].[Na+] [allura red AC] | 4.70 | None of the selected food additives showed any effect | 5.80 | 5.59 | – | 6.10 | effect on fexofenadine plasma levels (OATP2B1 inhibition) [7]: decreases fexofenadine plasma levels
O=C(O)c1cc(/N=N/c2ccc(S(=O)(=O)Nc3ccccn3)cc2)ccc1O [sulfasalazine, reference compound] | – | – | – | – | – | – | Papp A→B at 120 min, 500 μM [8]: ≤ 0.1 ×10⁻⁶ cm/s; Papp B→A at 120 min, 500 μM [8]: ~6.5 ×10⁻⁶ cm/s; efflux ratio at 120 min, 500 μM [8]: > 70
CCCCCCCCOC(=O)c1cc(O)c(O)c(O)c1 [octyl gallate] | 4.72 | – | – | – | 5.00 | – | inhibition at 50 μM [9]: ≥ 50%; inhibition of MRP2 substrate accumulation [10]: did not inhibit; inhibition of P-gp substrate accumulation [11]: did not inhibit; inhibition at 50 μM [12]: ≥ 50%
O=S(=O)([O-])c1ccc(N=Nc2cc(S(=O)(=O)[O-])c3ccccc3c2O)c2ccccc12.[Na+].[Na+] [carmoisine] | 4.54 | None of the selected food additives showed any effect | 5.54 | – | 5.27 | 5.01 | sulfasalazine P app fold change ([2]; food additive 200 μM on both sides of the cell monolayer): ≤ 2
